Structures can show the parent of a compound that is named as a salt.
What was measured:
[1] = target: T1, human sputum elastase (Homo sapiens, UniProt P08246); assay: Inhibitory effect on elastase (human sputum), spectrophotometric assay with MeOSuc-Ala-Ala-Pro-Val-pNA; format: biochemical; details: S: human sputum elastase; pH 8.0, 37° C.; read-out: IC50
T1 sequence (P08246 30-247 limits assumed): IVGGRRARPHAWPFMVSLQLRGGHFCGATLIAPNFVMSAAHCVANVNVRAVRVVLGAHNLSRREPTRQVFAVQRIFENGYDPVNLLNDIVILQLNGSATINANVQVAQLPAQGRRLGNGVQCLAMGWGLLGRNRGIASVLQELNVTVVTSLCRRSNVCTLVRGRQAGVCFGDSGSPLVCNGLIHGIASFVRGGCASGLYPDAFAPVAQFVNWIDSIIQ
Method: (§1) Namely, it is a spectrophotometric assay using the synthesized substrate, methoxysuccinyl-alanyl-alanyl- prolyl-valyl-p-nitroanilide(MeOSuc-Ala-Ala-Pro-Val-pNA, Cambridge research biochemical Co.) which has high specificity on neutrophil elastase.
(§2) 20 μl of a test compound of various concentrations and 20 μl of enzyme solution (13 unit/ml) were added to 400 μl of 0.1M sodium phosphate buffer (pH 8.0). The mixture was incubated at 37° C. for 5 min, and then 20 μl of the substrate was added to the mixture in a final volume of 460 μl. The reaction was conducted by incubating thus obtained mixture at 37° C. for 20 min. The reaction was stopped by the addition of 300 μl of 20% acetic acid into the reaction mixture, and then p-nitroanilide released was measured by the spectrophotometrically at 405 nm.
(§3) Inhibition percents of the test compounds were calculated by the following equation:
(§4) Inhibition %=[1-(OD 405 nm value of the testing sample-background)/(OD 405 nm value of the control-background)]×100

[2] = Cytotoxicity test (MTT, three days); format: cell-based; details: mouse, l1210 cells, read-out: Survival rate; for viability at 72 h, 1 µM: final concentration 1 μM; for viability at 72 h, 5 µM: final concentration 5 μM; for viability at 72 h, 10 µM: final concentration 10 μM
Method: L1210 (lymphocytic leukemia, mouse) cells in a logarithmic growth phase were collected and washed twice with HBSS (Hanks' balanced salt solution). The L1210 cells were resuspended at 5.0×10^4 cells/ml in RPMI 1640 medium containing 10% heat-inactivated fetal bovine serum. The cell suspension was dispensed in 100 μl aliquots into 96 well multi-plate. Each of compounds to be tested was dissolved in dimethylsulfoxide at a concentration of 10 mM. The solutions were stepwise diluted with RPMI 1640 solution containing 10% heat-inactivated fetal bovine serum. Each of the diluted samples was dispensed in an amount of 10 μl well in the 96 well multi-plate containing L1210 cells and incubated for three days at 37° C. in humidified 5% CO2 -air mixture. To each of the wells, 10 μl of MTT (3-(4,5-dimethylthiazol-2-yl)-2,5-diphenyltetrazolium bromide)(5 mg/ml in phosphate buffer free of Ca^2+ and Mg^2+) was added. Cultivation was continued for additional five hours at 37° C. in humidified 5% CO2 -air mixture. To each of the wells, 100 μl of 20% SDS (sodium dodecyl sulfate) in 0.01N HCl was added to solubilize the MTT formazan.
Absorbance was measured at 630 nm as a reference wavelength and 570 nm as a measuring wavelength using Corona Electric MTP22 Microplate Photometer. The measurement was conducted three times for each of the samples to obtain an average value and a standard deviation. Survival rate was calculated by the following equation:
Survival rate (5)=[(absorbance of test sample)/(absobance of […]

[3] = target: T2, human neutrophil elastase (Homo sapiens, UniProt P08246); assay: Inhibitory effect on elastase (human neutrophil), spectrophotometric assay with MeOSuc-Ala-Ala-Pro-Val-pNA; format: biochemical; details: N: human neutrophil elastase; pH 8.0, 37° C.; read-out: IC50
T2 construct: using elastase from human neutrophil or human sputum; from tissue; host or cells: human neutrophil
T2 sequence (P08246 30-247 limits assumed): T1 sequence (P08246 30-247 limits assumed)
Method: as §1, §2, §3, §4

Row | Structure (SMILES) | IC50 [1] [nM] | viability at 72 h, 1 µM [2] [%] | viability at 72 h, 5 µM [2] [%] | viability at 72 h, 10 µM [2] [%] | IC50 [3] [nM]
1 | CC(C)c1ccc(-n2nnc(-c3ccc(OC(=O)C(C)(C)C)cc3)n2)cc1 [Example 6, 4-[2-(4-Isopropylphenyl)tetrazol-5-yl)phenyl pivalate] | 4400 | 94.9 | 88.7 | 70.1 | –
2 | CC(C)(C)C(=O)Oc1ccc(-c2nnn(Cc3ccccc3)n2)cc1 [Example 9, 4-(2-Benzyltetrazol-5-yl)phenyl pivalate] | 170 | 93.9 | 100 | 98.1 | –
3 | CC(C)(C)C(=O)Oc1ccc(-c2nnn(CC(=O)Nc3ccccc3)n2)cc1 [Example 11, 4-[2-(N-Phenylcarbamoylmethyl)tetrazol-5-yl]phenyl pivalate] | – | – | – | – | 850
4 | CC(C)(C)C(=O)Oc1ccc(-c2nnn(CC(=O)N3CCCCC3)n2)cc1 [Example 12, 4-[2-(Piperidinocarbonylmethyl)tetrazol-5-yl]phenyl pivalate] | – | – | – | – | 510
5 | COc1ccc(Cn2nnc(-c3ccc(OC(=O)C(C)(C)C)cc3)n2)cc1 [Example 13, 4-[2-(4-Methoxybenzyl)tetrazol-5-yl]phenyl pivalate] | – | – | – | – | 72
6 | CC(C)(C)C(=O)Oc1ccc(-c2nnn(CCc3ccccc3)n2)cc1 [Example 14, 4-[2-(2-Phenylethyl)tetrazol-5-yl]phenyl pivalate] | – | – | – | – | 76
7 | CC(C)(C)C(=O)Oc1ccc(-c2nnn(COCc3ccccc3)n2)cc1 [Example 15, 4-[2-(Benzyloxymethyl)tetrazol-5-yl]phenyl pivalate] | – | – | – | – | 94
8 | CC(C)(C)C(=O)Oc1ccc(-c2nnn(Cc3ccc(C(F)(F)F)cc3)n2)cc1 [Example 17, 4-[2-(4-Trifluoromethylbenzyl)tetrazol-5-yl]phenyl pivalate] | – | – | – | – | 100
9 | COc1ccc(COc2ccc(Cn3nnc(-c4ccc(OC(=O)C(C)(C)C)cc4)n3)cc2)cc1 [Example 18, 4-[2-[4-(4-Methoxybenzyloxy)benzyl]tetrazol-5-yl]phenyl pivalate] | 160 | – | – | – | 17
10 | COc1ccc(CCCn2nnc(-c3ccc(OC(=O)C(C)(C)C)cc3)n2)cc1 [Example 20, 4-[2-[3-(4-Methoxyphenyl)propyl]tetrazol-5-yl]phenyl pivalate] | – | – | – | – | 90
11 | COc1ccc(CCCCn2nnc(-c3ccc(OC(=O)C(C)(C)C)cc3)n2)cc1 [Example 21, 4-[2-[4-(4-Methoxyphenyl)butyl]tetrazol-5-yl]phenyl pivalate] | – | – | – | – | 62
12 | COc1ccc(COCCCCn2nnc(-c3ccccc3OC(=O)C(C)(C)C)n2)cc1 [Example 22, 2-[2-[4-(4-Methoxybenzyloxy)butyl]tetrazol-5-yl]phenyl pivalate] | 4300 | 102 | 86.4 | 86.7 | –
13 | COc1ccc(COCCCCn2nnc(-c3cccc(OC(=O)C(C)(C)C)c3)n2)cc1 [Example 23, 3-[2-[4-(4-Methoxybenzyloxy)butyl]tetrazol-5-yl]phenyl pivalate] | – | 104 | 102 | 94.3 | 22
14 | COC(=O)c1ccccc1Cn1nnc(-c2ccc(OC(=O)C(C)(C)C)cc2)n1 [Example 24, 4-[2-(2-Methoxycarbonylbenzyl)tetrazol-5-yl]phenyl pivalate] | – | – | – | – | 100
15 | CC(C)Cn1nnc(-c2ccc(OC(=O)C(C)(C)C)cc2)n1 [Example 37, 4-[2-(2-Methylpropyl)tetrazol-5-yl]phenyl pivalate] | 180 | 92.5 | 106 | 95.5 | –
16 | COc1ccc(COCCn2nnc(-c3ccc(OC(=O)C(C)(C)C)cc3)n2)cc1 [Example 41, 4-[2-[2-(4-Methoxybenzyloxy)ethyl]tetrazol-5-yl]phenyl pivalate] | – | – | – | – | 65
17 | COc1ccc(CCn2nnc(-c3ccc(OC(=O)C(C)(C)C)cc3)n2)cc1 [Example 44, 4-[2-[2-(4-Methoxyphenyl)ethyl]tetrazol-5-yl]phenyl pivalate] | – | – | – | – | 85
18 | CN(C)CCOc1ccc(Cn2nnc(-c3ccc(OC(=O)C(C)(C)C)cc3)n2)cc1 [Example 46, 4-[2-[4-(2-Dimethylaminoethoxy)benzyl]tetrazol-5-yl]phenyl pivalate Hydrochloride] | – | – | – | – | 89

Row | Structure (SMILES) | IC50 [1] [nM] | viability at 72 h, 1 µM [2] [%] | viability at 72 h, 5 µM [2] [%] | viability at 72 h, 10 µM [2] [%] | IC50 [3] [nM]
19 | COc1cc(-c2nnn(Cc3ccc(N(C)C)cc3)n2)ccc1OC(=O)C(C)(C)C [Example 48, 4-[2-[4-(Dimethylamino)benzyl]tetrazol-5-yl]-2-methoxyphenyl pivalate] | 700 | 99.4 | 94.6 | 86.1 | –
20 | Cc1cc(-c2nnn(Cc3ccc(N(C)C)cc3)n2)ccc1OC(=O)C(C)(C)C [Example 49, 4-[2-[4-(Dimethylamino)benzyl]tetrazol-5-yl]-2-methylphenyl pivalate] | 700 | 103 | 105 | 110 | –
21 | CC(C)(C)C(=O)Oc1ccc(-c2nnn(Cc3ccc(C(=O)O)cc3)n2)cc1 [Example 54, 4-[5-(4-Pivaloyloxyphenyl)tetrazol-2-ylmethyl]benzoic acid] | 56 | 101 | 107 | 100 | –
22 | CC(C)[C@H](NC(=O)c1ccc(Cn2nnc(-c3ccc(OC(=O)C(C)(C)C)cc3)n2)cc1)C(=O)O [Example 67, N-[4-[5-(4-Pivaloyloxyphenyl)tetrazol-2-ylmethyl]benzoyl]-L-valine] | 130 | 92.2 | 100 | 90.1 | –
23 | CC(C)(C)C(=O)Oc1ccc(-c2nnn(C(C(=O)O)c3ccccc3)n2)cc1 (centres unmarked) [Example 69, 2-Phenyl-2-[5-(4-pivaloyloxyphenyl)tetrazol-2-yl]acetic acid] | 820 | 96.7 | 105 | 101 | –
24 | CC(C)(C)C(=O)Oc1ccc(-c2nnn(CCCCCO)n2)cc1 [Example 74, 4-[2-(5-Hydroxypentyl)tetrazol-5-yl]phenyl pivalate] | – | – | – | – | 98
25 | CC(C)(C)C(=O)Oc1ccc(-c2nnn(Cc3ccc(O)cc3)n2)cc1 [Example 75, 4-[2-(4-Hydroxybenzyl)tetrazol-5-yl]phenyl pivalate] | – | – | – | – | 80
26 | CC(C)(C)C(=O)Oc1ccc(-c2nnn(Cc3ccccc3N)n2)cc1 [Example 78, 4-[2-(2-Aminobenzyl)tetrazol-5-yl]phenyl pivalate] | 91 | 103 | 107 | 93.7 | –
27 | CC(C)(C)C(=O)Oc1ccc(-c2nnn(CC(=O)O)n2)cc1 [Example 80, 5-(4-Pivaloyloxyphenyl)-2-tetrazoleacetic acid] | – | 93.9 | 98.1 | 109 | –
28 | CC(C)(C)C(=O)Oc1ccc(-c2nnn(CCN)n2)cc1 [Example 92, 4-[2-(2-Aminoethyl)tetrazol-5-yl]phenyl pivalate Hydrochloride] | 1600 | – | – | – | –
29 | CC(C)(C)C(=O)Oc1ccc(-c2nnn(CCCCC(=O)O)n2)cc1 [Example 93, 5-[5-(4-Pivaloyloxyphenyl)tetrazol-2-yl]valeric acid] | – | – | – | – | 520
30 | CC(C)c1ccc(Cn2nnnc2-c2ccc(OC(=O)C(C)(C)C)cc2)cc1 [Example 96, 4-[1-(4-Isopropylbenzyl)tetrazol-5-yl]phenyl pivalate] | 140 | – | – | – | –
31 | CCN(C)c1ccc(Cn2nnc(-c3ccc(OC(=O)C(C)(C)C)cc3)n2)cc1 [Example 97, 4-[2-[4-(Ethylmethylamino)benzyl]tetrazol-5-yl]phenyl pivalate] | 150 | – | – | – | –
32 | CCCN(C)c1ccc(Cn2nnc(-c3ccc(OC(=O)C(C)(C)C)cc3)n2)cc1 [Example 98, 4-[2-[4-(Methylpropylamino)benzyl]tetrazol-5-yl]phenyl pivalate] | 150 | – | – | – | –
33 | CN(C)c1ccc(Cn2nnnc2-c2ccc(OC(=O)C(C)(C)C)cc2)cc1 [Example 99, 4-[1-[4-(Dimethylamino)benzyl]tetrazol-5-yl]phenyl pivalate] | 340 | – | – | – | –
34 | CN(C)c1cccc(Cn2nnc(-c3ccc(OC(=O)C(C)(C)C)cc3)n2)c1 [Example 100, 4-[2-[3-(Dimethylamino)benzyl]tetrazol-5-yl]phenyl pivalate] | 250 | – | – | – | –
35 | CN(C)c1ccccc1Cn1nnc(-c2ccc(OC(=O)C(C)(C)C)cc2)n1 [Example 101, 4-[2-[2-(Dimethylamino)benzyl]tetrazol-5-yl]phenyl pivalate] | 380 | – | – | – | –
